Each structure is given as a SMILES string.

Broadly, the Papp A→B is the apparent permeability from the apical to the basolateral side of a cell layer. For orientation: Papp B→A means how fast a substance crosses the layer from the basolateral side.

The test system of data set [1] is rPCEC. Nature of the data set: Cellular accumulation of [14C] erythromycin in rPCEC. Type of data set: cell-based, rabbit.
The subject of data set [2] is rPCEC. Nature of the data set: Cell proliferation assay. Type of data set: cell-based, rabbit. The note with it: steroid 500 μM with erythromycin, 12 h, data not shown.
The target in the next data set is P-gp (Homo sapiens, UniProt P08183). The data set can be described thus: Bi-directional transport across MDCK-MDR1 cell monolayers. The note with it: MDCK-MDR1, pH 7.4. Type of data set: in vitro ADME.
P-gp, sequence (P08183 whole entry): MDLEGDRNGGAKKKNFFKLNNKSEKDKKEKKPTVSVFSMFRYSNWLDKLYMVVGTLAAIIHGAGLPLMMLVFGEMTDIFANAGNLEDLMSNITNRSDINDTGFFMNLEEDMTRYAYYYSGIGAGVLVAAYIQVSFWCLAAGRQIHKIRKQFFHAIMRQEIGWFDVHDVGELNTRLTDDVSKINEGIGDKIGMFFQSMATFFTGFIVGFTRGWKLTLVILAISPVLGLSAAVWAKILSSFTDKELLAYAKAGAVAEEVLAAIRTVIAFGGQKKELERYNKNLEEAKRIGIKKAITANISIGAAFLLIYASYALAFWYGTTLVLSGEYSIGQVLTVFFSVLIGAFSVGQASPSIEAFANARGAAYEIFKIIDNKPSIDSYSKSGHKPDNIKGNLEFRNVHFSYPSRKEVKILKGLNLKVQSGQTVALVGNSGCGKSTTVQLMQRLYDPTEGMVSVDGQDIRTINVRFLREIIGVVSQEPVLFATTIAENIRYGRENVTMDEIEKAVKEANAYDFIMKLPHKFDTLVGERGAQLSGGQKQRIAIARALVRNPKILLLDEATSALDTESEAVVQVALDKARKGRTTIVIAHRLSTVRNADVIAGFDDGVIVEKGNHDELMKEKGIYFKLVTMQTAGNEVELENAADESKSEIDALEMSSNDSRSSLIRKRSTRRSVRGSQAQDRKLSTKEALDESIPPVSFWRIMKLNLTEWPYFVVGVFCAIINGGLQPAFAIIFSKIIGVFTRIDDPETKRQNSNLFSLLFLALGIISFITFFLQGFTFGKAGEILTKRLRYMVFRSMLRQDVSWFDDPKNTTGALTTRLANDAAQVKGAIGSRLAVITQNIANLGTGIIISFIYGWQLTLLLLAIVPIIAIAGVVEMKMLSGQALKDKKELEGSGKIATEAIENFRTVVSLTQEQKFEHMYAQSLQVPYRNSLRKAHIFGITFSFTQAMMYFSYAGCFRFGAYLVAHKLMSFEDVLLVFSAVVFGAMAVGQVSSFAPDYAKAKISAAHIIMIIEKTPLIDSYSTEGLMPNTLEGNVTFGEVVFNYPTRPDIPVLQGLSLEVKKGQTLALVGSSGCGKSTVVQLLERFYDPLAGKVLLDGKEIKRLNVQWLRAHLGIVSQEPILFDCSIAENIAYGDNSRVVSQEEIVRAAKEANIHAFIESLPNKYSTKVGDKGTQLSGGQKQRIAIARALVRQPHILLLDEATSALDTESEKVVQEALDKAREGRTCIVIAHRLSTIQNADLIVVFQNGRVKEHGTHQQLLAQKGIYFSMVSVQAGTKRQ
A further data set has as its target MRP2 (Homo sapiens, UniProt Q92887). Nature of the data set: Bi-directional transport across MDCK-MRP2 cell monolayers. Format: in vitro ADME. As to conditions: pH 7.4.
The conditions of data set [3]: rabbit; in the absence of an inhibitor.

MRP2, sequence (Q92887 whole entry): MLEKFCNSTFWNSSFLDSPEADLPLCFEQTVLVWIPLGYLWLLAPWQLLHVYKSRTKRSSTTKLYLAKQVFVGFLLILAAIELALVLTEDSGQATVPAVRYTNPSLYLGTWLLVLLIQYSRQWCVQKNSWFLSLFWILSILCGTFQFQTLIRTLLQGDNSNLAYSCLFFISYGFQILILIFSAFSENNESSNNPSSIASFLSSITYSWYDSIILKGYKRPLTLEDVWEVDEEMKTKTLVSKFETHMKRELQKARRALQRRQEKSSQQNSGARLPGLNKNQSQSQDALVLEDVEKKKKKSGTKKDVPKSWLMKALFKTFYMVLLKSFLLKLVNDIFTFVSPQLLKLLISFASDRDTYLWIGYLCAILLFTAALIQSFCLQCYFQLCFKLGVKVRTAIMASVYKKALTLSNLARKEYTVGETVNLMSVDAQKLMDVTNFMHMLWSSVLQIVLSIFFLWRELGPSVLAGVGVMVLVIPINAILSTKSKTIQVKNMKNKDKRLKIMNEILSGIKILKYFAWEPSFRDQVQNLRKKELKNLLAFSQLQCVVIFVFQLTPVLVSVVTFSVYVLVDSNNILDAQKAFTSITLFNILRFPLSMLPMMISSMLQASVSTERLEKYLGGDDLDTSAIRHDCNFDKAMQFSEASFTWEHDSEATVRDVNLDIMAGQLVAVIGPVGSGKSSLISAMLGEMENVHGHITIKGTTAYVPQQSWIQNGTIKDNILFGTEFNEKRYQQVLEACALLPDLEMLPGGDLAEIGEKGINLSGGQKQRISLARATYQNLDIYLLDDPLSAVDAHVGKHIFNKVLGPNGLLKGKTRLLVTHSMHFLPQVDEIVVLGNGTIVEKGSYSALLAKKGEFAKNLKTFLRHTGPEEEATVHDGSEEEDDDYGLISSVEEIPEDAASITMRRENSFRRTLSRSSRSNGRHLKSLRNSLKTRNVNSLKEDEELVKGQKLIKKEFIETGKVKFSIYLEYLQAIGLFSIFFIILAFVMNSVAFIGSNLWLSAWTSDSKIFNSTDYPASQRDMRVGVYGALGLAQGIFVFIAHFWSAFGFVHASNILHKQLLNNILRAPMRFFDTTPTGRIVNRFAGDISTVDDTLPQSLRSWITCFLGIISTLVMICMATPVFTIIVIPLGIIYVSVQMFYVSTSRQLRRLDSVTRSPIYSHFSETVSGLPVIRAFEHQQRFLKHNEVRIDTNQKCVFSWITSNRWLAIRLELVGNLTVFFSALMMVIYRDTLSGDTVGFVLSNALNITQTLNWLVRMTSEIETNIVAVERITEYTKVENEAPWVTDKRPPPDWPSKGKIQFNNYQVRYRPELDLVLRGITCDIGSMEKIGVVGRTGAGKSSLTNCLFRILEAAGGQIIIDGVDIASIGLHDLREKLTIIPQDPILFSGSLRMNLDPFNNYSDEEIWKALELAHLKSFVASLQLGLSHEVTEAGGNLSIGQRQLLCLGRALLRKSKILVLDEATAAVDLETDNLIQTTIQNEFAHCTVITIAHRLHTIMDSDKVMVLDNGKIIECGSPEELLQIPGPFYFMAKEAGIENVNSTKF

Turning to `C[C@H]1C[C@@H]2[C@H]([C@@H](O)C[C@@]3(C)[C@H]2CC[C@]3(O)C(=O)CO)[C@@]2(C)C=CC(=O)C=C12` [MPL, 6α-methyl prednisolone], the “Cellular accumulation of [^14C] erythromycin increased by, relative to control” value in the data set with rPCEC [1] ([14C] erythromycin 0.25 μCi/ml, 15 min, steroid 500 μM) amounted to 375%. In addition, the “Inhibition of erythromycin efflux” value with rPCEC [1] (steroid 500 μM) was “complete inhibition”. In addition, the “Cellular toxicity (percentage of viable cells vs control)” value with rPCEC [2] is on record as “not toxic”.
As to `C[C@]12C=CC(=O)C=C1CC[C@@H]1[C@@H]2[C@@H](O)C[C@@]2(C)[C@H]1CC[C@]2(O)C(=O)CO` [PL, prednisolone], in the data set with rPCEC [1] (steroid 500 μM), the “Inhibition of erythromycin efflux” value is on record as about 80%. Besides, the “Cellular toxicity (percentage of viable cells vs control)” value with rPCEC [2] is recorded as “not toxic”.
For `C[C@]12C=CC(=O)C=C1CC[C@@H]1[C@@H]2C(=O)C[C@@]2(C)[C@H]1CC[C@]2(O)C(=O)CO` [PS, prednisone], the Papp A→B at 3.5 h, 10 μM on P-gp was 6.97 ± 0.21 ×10⁻⁶ cm/s; on MRP2, 6.04 ± 0.15 ×10⁻⁶ cm/s. The Papp B→A at 3.5 h, 10 μM at P-gp stood at 17.7 ± 0.47 ×10⁻⁶ cm/s; on MRP2, 17.8 ± 0.22 ×10⁻⁶ cm/s. Besides, in the data set on rPCEC [1] (steroid 500 μM), the “Inhibition of erythromycin efflux” value is listed as about 80%. Further, the “Cellular toxicity (percentage of viable cells vs control)” value with rPCEC [2] is on record as “not toxic”.
In the case of `CC[C@H]1OC(=O)[C@H](C)[C@@H](O[C@H]2C[C@@](C)(OC)[C@@H](O)[C@H](C)O2)[C@H](C)[C@@H](O[C@@H]2O[C@H](C)C[C@H](N(C)C)[C@H]2O)[C@](C)(O)C[C@@H](C)C(=O)[C@H](C)[C@@H](O)[C@]1(C)O` [Ery, erythromycin], in data set [3], the “Corneal absorption rate constant (ka) of erythromycin” value is reported as 4.54±0.62×10^−5 min^−1.
In the case of `CN(C)C(=O)CCSC(SCCC(=O)O)c1cccc(/C=C/c2ccc3ccc(Cl)cc3n2)c1` (stereo not shown) [MK571], the “Cellular accumulation of [^14C] erythromycin in the presence of specific inhibitor, relative to control” value in the data set with rPCEC [1] ([14C] erythromycin 0.25 μCi/ml, 15 min, GF120918 2 μM, MK571 50 μM) was 310%.

The values are drawn from PMC4516224 (Pharmaceutical research, 2008).
